Patent US6114334A, “Piperazine derivatives as therapeutic agents” (Knoll Aktiengesellschaft, priority 1995, dated 2000)
Where a name gives a salt, the structure may show the parent alone.

What was measured:
5-HT1A receptors = molecular target: T1, 5-HT1A receptors (Rattus norvegicus, UniProt P19327); assay: inhibition of [3H]8-OH-DPAT binding to 5-HT1A receptors in vitro; parameters: species or system rat (male Sprague-Dawley, hippocampal tissue); settings: rat hippocampus, [3H]8-OH-DPAT 2 nM, 25° C., 30 min
T1 sequence (P19327 1-422): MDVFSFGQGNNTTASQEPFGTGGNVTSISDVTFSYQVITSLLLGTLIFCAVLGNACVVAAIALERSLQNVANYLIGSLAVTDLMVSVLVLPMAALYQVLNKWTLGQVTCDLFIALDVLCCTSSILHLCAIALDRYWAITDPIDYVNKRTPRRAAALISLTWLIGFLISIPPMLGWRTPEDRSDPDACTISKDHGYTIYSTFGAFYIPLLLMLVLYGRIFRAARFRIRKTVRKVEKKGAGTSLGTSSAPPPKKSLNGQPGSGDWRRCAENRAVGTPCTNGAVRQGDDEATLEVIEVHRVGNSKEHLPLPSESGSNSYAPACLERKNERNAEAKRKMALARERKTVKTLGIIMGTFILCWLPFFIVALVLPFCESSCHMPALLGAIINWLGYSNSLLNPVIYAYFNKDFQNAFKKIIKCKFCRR

α2A-adrenoceptors = molecular target: T2, α2A-adrenoceptors (Homo sapiens, UniProt P08913); assay: inhibition of tritiated RX 821002 binding to α2A-adrenoceptors in vitro; parameters: species or system human (cerebral cortex post-mortem); settings: human cerebral cortex; for inhibition at 1 µM: 10^-6 M, [3H]RX 821002, read-out: % displacement at 10^-6 M, α2A
T2 construct: Human cerebral cortex obtained at post-mortem; from tissue; host or cells: human cerebral cortex, post-mortem
T2 sequence (P08913 1-465): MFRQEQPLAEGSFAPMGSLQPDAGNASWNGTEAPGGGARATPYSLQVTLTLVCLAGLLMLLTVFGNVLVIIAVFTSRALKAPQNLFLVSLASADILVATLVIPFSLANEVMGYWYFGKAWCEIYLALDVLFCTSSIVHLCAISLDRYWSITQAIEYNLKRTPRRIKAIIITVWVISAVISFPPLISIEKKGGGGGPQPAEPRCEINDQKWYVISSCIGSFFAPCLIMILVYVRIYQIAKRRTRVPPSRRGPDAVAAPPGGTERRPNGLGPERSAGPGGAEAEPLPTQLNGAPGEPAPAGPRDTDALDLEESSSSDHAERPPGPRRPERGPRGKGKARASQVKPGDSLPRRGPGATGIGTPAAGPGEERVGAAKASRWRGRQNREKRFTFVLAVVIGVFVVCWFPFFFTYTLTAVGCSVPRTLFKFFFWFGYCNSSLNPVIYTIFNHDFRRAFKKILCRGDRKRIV
Description: Human cerebral cortex obtained at post-mortem was homogenised in ice-cold 0.25M sucrose (1:30 w/v) and centrifuged at 1,000 g at 4° C. for 12 minutes. The supernatant was stored on ice and the pellet was rehomogenised in 0.25M sucrose (1:15 w/v) and centrifuged at 850 g at 4° C. for 12 minutes. Combined supernatants were diluted with 5 mM Tris-HCl (pH 7.5) containing 5 mM ethylenediamine tetraacetic acid (EDTA), readjusted to pH 7.5 (at 25° C.) with 1M sodium hydroxide to 1:80 w/v, and centrifuged at 11,000 g at 4° C. for 10 minutes. The resulting pellet was resuspended in 50 mM Tris-HCl (pH 7.5) containing 5.68 mM L-ascorbic acid and 0.5 mM EDTA, readjusted to pH 7.5 (at 25° C.) with 1M sodium hydroxide to 1:80 w/v, and centrifuged at 11,000 g for 10 minutes. The pellet was stored at -80° C. On the day of the assay the pellet was thawed, resuspended in 50 mM Tris-HCl (pH 7.5) containing 5.68 mM L-ascorbic acid and 5 mM EDTA to 1:80 w/v and centrifuged at 11,000 g for 10 minutes. The final pellet was resuspended in 50 mM Tris-HCl (pH 7.5) containing 5.68 mM L-ascorbic acid and 5 mM EDTA (equivalent to 25 mg wet weight of tissue/ml).
Aliquots (400 μl; equivalent to 10 mg wet weight of tissue/tube) of this suspension were added to tubes containing the ligand (50 μl; 0.2 nM) and distilled water (50 μl; total binding) or phentolamine (50 μl; 50 μM; non-specific binding) or test compound (50 μl; at a single concentration of 10^-6 M or at 10 concentrations ranging from 10^-11 -10^-3 M). The ligand was tritiated RX 821002 (2-(2-methoxy-1,4-[6,7(n)-^3 H]benzodioxan-2-yl)-2-imidazoline) and the mixture was incubated at 0° C. for 75 minutes before the incubation was terminated by rapid filtration.
The filters were washed with ice-cold Tris-HCl buffer and dried. The filters were punched out into vials, scintillation fluid added and radioactivity determined by liquid scintillation counting. The percentage displacement of specific binding of the tritiated ligand was calculated for the single concentration (10^-6 M) of test compound. Displacement curves were then produced for those compounds which displaced ≥50% of specific binding of the tritiated ligand at 10^-6 M using a range of concentrations of the compound. The concentration which gave 50% inhibition of specific binding (IC50) was obtained from the curve. The inhibition coefficient Ki was then calculated using the formula [formula] in which [ligand] is the concentration of the tritiated ligand used and KD is the equilibrium dissociation constant for the ligand.

α1-adrenoceptors = assay: inhibition of 7-methoxy-[3H]prazosin binding to α1-adrenoceptors in vitro; parameters: species or system rat (male Charles River CD, whole cortical tissue); settings: rat whole cortex, 30 min; for Ki: 7-methoxy-[3H]prazosin 0.1 nM, 30° C.
Description: Whole cortical tissue from the brains of male Charles River CD rats weighing between 150-250 g were homogenised in ice-cold 50 mM Tris-HCl, pH 7.6 (at 25° C.; 1:40 w/v) and centrifuged at 1000 g at 4° C. for 10 minutes. The supernatant was centrifuged at 30,000 g at 4° C. for 10 minutes. The pellet was rehomogenised in 50 mM Tris-HCl, pH 7.6 (1:40 w/v) and centrifuged at 30,000 g at 4° C. for 10 minutes. The final pellet was resuspended in 50 mM Tris-HCl, pH 7.6 (equivalent to 12.5 mg wet weight of tissue/ml) and used immediately in the binding assay. Aliquots (400 μl; equivalent to 5 mg wet weight of tissue/tube) of this suspension were added to tubes containing the ligand (50 μl; 0.1 nM) and distilled water (50 μl; total binding) or phentolamine (50 μl; 5 μM; non-specific binding) or test compound (50 μl; at a single concentration of 10^-6 M or at 10 concentrations ranging from 10^-11 -10^-3 M). The ligand was 7-methoxy-[^3 H]prazosin and the mixture was incubated at 30° C. for 30 minutes before the incubation was terminated by rapid filtration. The filters were washed with ice-cold Tris-HCl buffer and dried. The filters were punched out into vials, scintillation fluid added and radioactivity determined by liquid scintillation counting. The percentage displacement of specific binding of the tritiated ligand was calculated for the single concentration (10^-6 M) of test compound. […] The concentration which gave 50% inhibition of specific binding (IC50) was obtained from the curve. The inhibition coefficient Ki was then calculated using the formula [formula] in which [ligand] is the concentration of the tritiated ligand used and KD is the equilibrium dissociation constant for the ligand.

α2D-adrenoceptors = molecular target: T3, α2D-adrenoceptors (Rattus norvegicus, UniProt P22909); assay: inhibition of tritiated idazoxan binding to α2D-adrenoceptors in vitro; parameters: species or system rat (male Charles River CD, frontal cortical tissue); settings: rat frontal cortex; for Ki: [3H]idazoxan 1 nM, 0° C., 75 min; for inhibition at 1 µM: 10^-6 M, [3H]idazoxan, read-out: % displacement at 10^-6 M, α2D
T3 sequence (P22909 1-465): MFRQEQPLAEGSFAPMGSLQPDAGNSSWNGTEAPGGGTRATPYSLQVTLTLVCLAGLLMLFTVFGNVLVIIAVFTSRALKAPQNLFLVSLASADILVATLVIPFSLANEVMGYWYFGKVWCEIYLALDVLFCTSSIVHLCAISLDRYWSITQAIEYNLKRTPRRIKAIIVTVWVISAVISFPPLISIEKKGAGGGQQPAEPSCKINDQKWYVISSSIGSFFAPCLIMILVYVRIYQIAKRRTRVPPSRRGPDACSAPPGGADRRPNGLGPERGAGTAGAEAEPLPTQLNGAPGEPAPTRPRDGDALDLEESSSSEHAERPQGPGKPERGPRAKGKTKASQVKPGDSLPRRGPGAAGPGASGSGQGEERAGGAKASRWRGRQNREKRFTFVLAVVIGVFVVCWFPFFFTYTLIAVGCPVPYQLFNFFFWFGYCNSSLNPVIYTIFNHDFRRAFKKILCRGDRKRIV

D2 dopamine receptors = D2 dopamine receptors (Rattus norvegicus, UniProt P61169); assay: inhibition of tritiated (S)-sulpiride binding to D2 dopamine receptors in vitro; parameters: species or system rat (male Charles River CD, striatal tissue); settings: rat striatum, tritiated (S)-sulpiride 1 nM, 4° C., 40 min
Sequence of D2 dopamine receptors (P61169 whole entry): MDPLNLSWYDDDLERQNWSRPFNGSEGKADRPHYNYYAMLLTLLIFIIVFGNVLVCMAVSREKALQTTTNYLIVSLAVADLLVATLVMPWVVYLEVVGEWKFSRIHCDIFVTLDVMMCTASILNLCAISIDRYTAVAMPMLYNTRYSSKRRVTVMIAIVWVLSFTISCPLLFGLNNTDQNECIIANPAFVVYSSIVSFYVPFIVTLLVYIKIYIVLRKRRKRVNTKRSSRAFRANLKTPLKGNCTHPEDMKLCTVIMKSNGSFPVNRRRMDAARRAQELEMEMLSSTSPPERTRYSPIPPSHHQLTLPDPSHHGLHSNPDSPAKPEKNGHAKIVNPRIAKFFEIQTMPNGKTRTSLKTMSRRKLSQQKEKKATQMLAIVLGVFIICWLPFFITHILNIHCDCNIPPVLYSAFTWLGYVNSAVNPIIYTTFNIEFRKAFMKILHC

CC(C)(C)n1nc(C2CC2)c(CN2CCN(c3cccc4c3OCCO4)CC2)c1N [Example 24, 5-Amino-4-[4-(1,4-benzodioxan-5-yl)piperazin-1-ylmethyl]-1-tert-butyl-3-cyclopropylpyrazole]
Ki (5-HT1A receptors): 21 nM
Ki (α2A-adrenoceptors; [3H]RX 821002 0.2 nM, 0° C., 75 min): 39 nM
Ki (α1-adrenoceptors): 177 nM
Ki (α2D-adrenoceptors): 13 nM
Ki (D2 dopamine receptors): 422 nM

Nc1nn(-c2ccccc2)c(N)c1CN1CCN(c2cccc3c2OCCO3)CC1 [Example 11, 3,5-diamino-4-[4-(1,4-benzodioxan-5-yl)piperazin-1-ylmethyl]-1-phenylpyrazole]
Ki (5-HT1A receptors): 16 nM
inhibition at 1 µM (α2A-adrenoceptors): 85%
Ki (α1-adrenoceptors): > 500 nM
Ki (α2D-adrenoceptors): 60 nM
Ki (D2 dopamine receptors): 309 nM

COc1ccc(-n2nc(C3CC3)c(CN3CCN(c4cccc5c4OCCO5)CC3)c2N)cc1 [Example 17, 5-Amino-4-[4-(1,4-benzodioxan-5-yl)piperazin-1-ylmethyl]-3-cyclopropyl-1-(4-methoxyphenyl)pyrazole]
Ki (5-HT1A receptors): 59 nM
inhibition at 1 µM (α2A-adrenoceptors): 86%
Ki (α1-adrenoceptors): 27 nM
Ki (α2D-adrenoceptors): 61 nM
Ki (D2 dopamine receptors): > 500 nM

CC(C)Oc1ccccc1N1CCN(Cc2c(C3CC3)nn(-c3ccccc3)c2N)CC1 [Example 23, 5-Amino-3-cyclopropyl-4-[4-(2-isopropoxyphenyl)piperazin-1-ylmethyl]-1-phenylpyrazole]
Ki (5-HT1A receptors): 22 nM
inhibition at 1 µM (α2A-adrenoceptors): 100%
Ki (α1-adrenoceptors): 17 nM
Ki (α2D-adrenoceptors): 1.7 nM
Ki (D2 dopamine receptors): 109 nM

Nc1c(CN2CCN(c3cccc4c3OCCO4)CC2)c(C2CC2)nn1Cc1ccccc1 [Example 26, 5-Amino-4-[4-(1,4-benzodioxan-5-yl)piperazin-1-ylmethyl]-1-benzyl-3-cyclopropylpyrazole]
Ki (5-HT1A receptors): 15 nM
inhibition at 1 µM (α2A-adrenoceptors): 100%
Ki (α1-adrenoceptors): 9.9 nM
Ki (α2D-adrenoceptors): 8.9 nM
Ki (D2 dopamine receptors): 185 nM

COc1ccccc1N1CCN(CC2(C)N=C(c3cccnc3)NC2=O)CC1 (stereo not drawn) [Example 36, 4-[4-(2-methoxyphenyl)piperazin-1-ylmethyl]-4-methyl-2-(3-pyridyl)-2-imidazolin-5-one]
Ki (5-HT1A receptors): 134 nM
inhibition at 1 µM (α2A-adrenoceptors): 66%
Ki (α1-adrenoceptors): 396 nM
Ki (α2D-adrenoceptors): 127 nM
Ki (D2 dopamine receptors): 297 nM

Nc1c(CN2CCN(c3cccc4c3OCCO4)CC2)c(C2CC2)nn1-c1ccncc1 [Example 34, 5-Amino-4-[4-(1,4-benzodioxan-5-yl)piperazin-1-ylmethyl]-3-cyclopropyl-1-(4-pyridyl)pyrazole]
Ki (5-HT1A receptors): 118 nM
inhibition at 1 µM (α2A-adrenoceptors): 96%
Ki (α1-adrenoceptors): 102 nM
inhibition at 1 µM (α2D-adrenoceptors): 87%
Ki (D2 dopamine receptors): 88 nM

Cc1ccccc1N1CCN(Cc2c(N)n(C)n(-c3ccccc3)c2=O)CC1 [Example 3, 3-Amino-2-methyl-4-[4-(2-methylphenyl)piperazin-1-ylmethyl]-1-phenyl-3-pyrazolin-5-one]
Ki (5-HT1A receptors): > 500 nM
inhibition at 1 µM (α2A-adrenoceptors): 98%
% displacement at 10^-6 M, α1 (α1-adrenoceptors; 10^-6 M, 7-methoxy-[3H]prazosin, 1 µM): 89%
inhibition at 1 µM (α2D-adrenoceptors): 56%
Ki (D2 dopamine receptors): > 500 nM

CC(C)Oc1ccccc1N1CCN(Cc2c(N)n(C)n(-c3ccccc3)c2=O)CC1 [Example 8, 3-Amino-4-[4-(2-isopropoxyphenyl)piperazin-1-ylmethyl]-2-methyl-1-phenyl-3-pyrazolin-5-one]
Ki (5-HT1A receptors): 106 nM
inhibition at 1 µM (α2A-adrenoceptors): 100%
Ki (α1-adrenoceptors): 12 nM
Ki (α2D-adrenoceptors): 21 nM
Ki (D2 dopamine receptors): 22 nM

Cn1c(N)c(CN2CCN(c3cccc4ccoc34)CC2)c(=O)n1-c1ccccc1 [Example 7, 3-Amino-4-[4-(7-benzo[b]furanyl)piperazin-1-ylmethyl]-2-methyl-1-phenyl-3-pyrazolin-5-one]
Ki (5-HT1A receptors): 24 nM
inhibition at 1 µM (α2A-adrenoceptors): 91%
Ki (α1-adrenoceptors): 19 nM
Ki (α2D-adrenoceptors): 165 nM
Ki (D2 dopamine receptors): 177 nM

Cn1nc(C2CC2)c(CN2CCN(c3cccc4c3OCCO4)CC2)c1N [Example 18, 5-Amino-4-[4-(1,4-benzodioxan-5-yl)piperazin-1-ylmethyl]-3-cyclopropyl-1-methylpyrazole 2.3 hydrochloride]
Ki (5-HT1A receptors): 27 nM
inhibition at 1 µM (α2A-adrenoceptors): 98%
Ki (α1-adrenoceptors; hydrochloride): 204 nM
Ki (α2D-adrenoceptors): 69 nM
